Measurements as given in patent US20110257436A1, “PROCESS FOR THE MANUFACTURE OF EASILY DISPERSIBLE, SOLID N'-HYDROXY-N-CYCLOHEXYL-DIAZENIUM OXIDE SALTS” (BASF SE, priority 2008, published 2011).

Assays:
[1] = cited from earlier work
[2] = particle size distribution analysis (volume distribution) by laser diffraction of aqueous dispersion; format: physicochemical
Description: The D10, D50 and D90 represent the median or the 10th, 50th, and the 90th percentile of the particle size distribution (volume distribution), respectively. That is, the D50 (D10/D90) is a value on the distribution such that 50% (10%/90%) of the particles have a particle size of this value or less. The volume averaged particle size distribution may be measured with an aqueous dispersion of the M^n+(HDO)n by techniques known to the skilled artisan, e.g. by laser diffraction techniques.
Furthermore, a particle size distribution analysis (volume distribution) was performed using a conventional laser diffraction apparatus (Mastersizer® 2000, Fa. Malvern Instruments). For the measurement, 1 g of Cu(HDO)2 was dispersed in 100 ml of water sample and 1 ml of a solution (1% by weight) of a nonionic surfactant (polyethylene glycole p-(1,1,3,3-tetramethylbutyl)-phenyl ether, around 9-10 ethylene oxide groups). […]

[3] = dispersion time 1 min, 1 g in 100 ml water with nonionic surfactant

Structure (SMILES)	solubility in water [1]	D10 value ([2]; after 10 min dispersion) [μm]	D50 ([2]; after 10 min dispersion) [μm]	D90 ([2]; after 10 min dispersion) [μm]	D10 value ([2]; after 30 min dispersion) [μm]	D50 ([2]; after 30 min dispersion) [μm]	D90 ([2]; after 30 min dispersion) [μm]	D10 value [2, 3] [μm]	D50 [2, 3] [μm]	D90 [2, 3] [μm]
O=NN([O-])C1CCCCC1.O=NN([O-])C1CCCCC1.[Cu+2] [Cu(HDO)2, Cu-salt of N′-hydroxy-N-cyclohexyldiazenium oxide]	around 30 ppm	14	45	108	12	41	93	16	49	140
[Cu+2].[O-]/N=[N+](\[O-])C1CCCCC1.[O-]/N=[N+](\[O-])C1CCCCC1 [Comparative Example, reference compound]		2	15	79	2	12	53	3	23	306
